Experimental data as given in publication PMC10180065, “Mechanistic Studies of Arene–Ruthenium(II) Complexes with Carbothioamidopyrazoles as Alternative Cancer Drugs” (Molecules, 2023).

What was measured:
[1] = system: WM115; test: MTT cytotoxicity, WM115; assay type: cell-based, human; conditions: 48 h incubation, read-out: Cytotoxic effect, IC50
Experimental: (§1) Cytotoxicity was evaluated against fifteen adherent human cancer cell lines using the MTT test: colorectal adenocarcinoma cells Caco2 (ATCC® HTB-37™), colorectal adenocarcinoma cells HT29 (ATCC® HTB-38™), colon colorectal carcinoma HCT116 (ATCC® CCL-247™), colon adenocarcinoma COLO205 (ATCC® CCL-222™), colorectal adenocarcinoma SW620 (ATCC® CCL-227™), colorectal adenocarcinoma grade IV LoVo (ATCC® CCL-229™), hepatocellular carcinoma Hep 3b (ATCC® HB-8064™), endometrium adenocarcinoma HEC1A (ATCC® HTB-112™), Ishikawa (99040201; Sigma–Aldrich Sigma, St. Louis, MO, USA), cervical adenocarcinoma cells HeLa (ATCC® CCL-2™), lung epithelial carcinoma A549 (ATCC® CRM-CCL-185™), breast epithelial adenocarcinoma cell positive for estrogen and progesterone receptors MCF7 (ATCC® HTB-22™) and negative for expression of estrogen receptor HCC38 (ATCC® CRL-2314™), acute promyelocytic leukemia HL-60 (ATCC® CCL-240™), skin melanoma WM115 (ATCC® CRL-1676™), and 1 suspension cancer cell line: acute lymphoblastic leukemia NALM6 (purchased from the German Collection of Microorganisms and Cell Cultures). HT29, NALM6, HCC-38 and HL-60 cells were cultured in RPMI 1640 medium (Thermo Fisher Scientific, Waltham, MA, USA) supplemented with 10% fetal bovine serum and antibiotic (gentamicin 25 μg ml^−1) (Gibco, Grand Island, New York, NY, USA). For the remaining tumor cell lines, Dulbecco’s minimal essential medium (DMEM, Lonza, Visp, Switzerland) supplemented with 10% fetal bovine serum and antibiotic instead of RPMI 1640 was used. In addition, Human Microvascular Endothelial Cells (HMEC1), which were obtained from the American Type Culture Collection (Manassas, VA, USA), were used as a model of normal cells. HMEC-1 were cultured in MCDB131 medium (Corning Life Sciences, Corning, NY, USA), supplemented with 10% fetal bovine serum, 10 ng/mL Epidermal Growth Factor (Millipore, Burlington, MA, USA) and 10 mM glutamine (Corning Life Sciences). All cells were grown at 37 °C in humidified atmosphere of 5% CO2 in air. The exponential growth of cells was maintained by regular passaging at 90% confluence three times a week using 0.025% trypsin/EDTA (Gibco, Grand Island, New York, NY, USA).
(§2) The cytotoxicity was tested by a standard MTT [3-(4,5-dimethylthiazol-2-yl)-2,5-diphenyltetrazolium bromide] (Sigma, St. Louis, MO, USA) microplate cell viability assay. The anticancer activity of the investigated compounds was evaluated in vitro on the basis of their ability to inhibit the proliferation of various cancer cells. Exponentially growing cells were seeded a day before the experiment into a 96-well microplate (Nunc, Roskilde, Denmark) at a density up to 6–8 × 10^3 cells/mL (depending on the cell line) and exposed to the test compounds at a wide range of concentrations for 48 h. Subsequently, various concentrations of the studied compounds (10^−7–10^−5 M) freshly prepared in DMSO (final concentration of <0.1% DMSO) and diluted with complete culture medium were added. After 48 h incubation, the cells were immediately subjected to a cell viability assay. At this time point, the number of viable cells in each well was estimated by the MTT test. Briefly, 50 µL (5 mg/mL final concentration) of MTT was added to each microplate well. This procedure was then followed by a three- to four-hour incubation at 37 °C. After incubation, MTT solution was replaced with 100 µL DMSO/well, which solubilized the formazan crystals formed by the dehydrogenases of metabolically active cells. Purple formazan absorbance was measured spectrophotometrically at 570 nm.

[2] = system: A549; test: MTT cytotoxicity, A549; assay type: cell-based, human; conditions: 48 h incubation, read-out: Cytotoxic effect, IC50
Experimental: as §1, §2

[3] = system: HCC38; test: MTT cytotoxicity, HCC38; assay type: cell-based, human; conditions: 48 h incubation, read-out: Cytotoxic effect, IC50
Experimental: as §1, §2

[4] = system: Ishikawa; test: MTT cytotoxicity, Ishikawa; assay type: cell-based, human; conditions: 48 h incubation, read-out: Cytotoxic effect, IC50
Experimental: as §1, §2

[5] = system: NALM6; test: MTT cytotoxicity, NALM6; assay type: cell-based, human; conditions: 48 h incubation, read-out: Cytotoxic effect, IC50
Experimental: as §1, §2

[6] = system: HT29; test: MTT cytotoxicity, HT29; assay type: cell-based, human; conditions: 48 h incubation, read-out: Cytotoxic effect, IC50
Experimental: as §1, §2

[7] = system: HEC1A; test: Mitochondrial potential, JC-1 probe, HEC1A; assay type: cell-based, human; conditions: IC50 concentration
Experimental: Cells (10 × 10^3/well) were seeded in black 96-well plates and grown for 24 h to reach the log phase. […] After removing the medium, the cell monolayer was washed twice with PBS solution and 50 μL of the JC-1 probe at a final concentration of 5 μM was added to the wells of the plate. The cells were incubated with the dye for 30 min in a CO2 incubator. Subsequently, the changes in the fluorescence of monomers (λex = 485 nm and λem = 525 nm) and aggregates (λex = 530 nm and λem = 590 nm) using JC-1 were monitored. The results of the tested trials were presented as the ratio of fluorescence of aggregates and JC1 monomers as a percentage of control values, which was assumed to be 100%.

[8] = system: SW620; test: MTT cytotoxicity, SW620; assay type: cell-based, human; conditions: 48 h incubation, read-out: Cytotoxic effect, IC50
Experimental: as §1, §2

[9] = system: LoVo; test: MTT cytotoxicity, LoVo; assay type: cell-based, human; conditions: 48 h incubation, read-out: Cytotoxic effect, IC50
Experimental: as §1, §2

[10] = system: HEC1A; test: MTT cytotoxicity, HEC1A; assay type: cell-based, human; conditions: 48 h incubation, read-out: Cytotoxic effect, IC50
Experimental: as §1, §2

[11] = system: HL60; test: MTT cytotoxicity, HL60; assay type: cell-based, human; conditions: 48 h incubation, read-out: Cytotoxic effect, IC50
Experimental: as §1, §2

[12] = Lipophilicity by RP-TLC; assay type: physicochemical; design: key: RM = log(1/Rf − 1), Rf = a/b; conditions: eluent AcCN: H2O at 30–70% v/v, 22 °C
Experimental: All the experimental solutions of standard substances (0.1 mg/mL) were prepared by dissolving ligands (1a–1d) or ruthenium complexes (2a/3a–2d/3d) in ethanol. Commercially-available octadecyl-modified silica aluminum sheets (20 × 20 cm) were cut into 5 × 10 cm plates. The plates were manually spotted with 1.0 μL of freshly prepared solutions using automatic pipets, 5 mm from each edge. The chromatograms for all compounds (1a/2a/3a–1d/2d/3d) were developed using a horizontal developing chamber and the solvent migration distance was about 4.5 cm. The plates were visually inspected under UV light at 254 nm. Each zone was clearly marked and its distance was manually measured. The RP-TLC analyses of lipophilicity were performed at ambient temperature (22 °C). In this experiment, all measurements were performed in triplicate and the obtained results were used in further calculations. The acetonitrile and water mixtures for ligands 1a–1d and arene–ruthenium(II) complexes 2a/3a–2d/3d were used as mobile phases, with […] content increasing in the range of 30–70% v/v, at 5% intervals. Values of the chromatographic retention coefficient Rf (as shown Formula (1)) and RM (as shown Formula (2)), based on received chromatograms, were calculated and converted as follows:(1) Rf=a/b (2) RM=log1/Rf−1

[13] = system: Hep 3b; test: MTT cytotoxicity, Hep 3b; assay type: cell-based, human; conditions: 48 h incubation, read-out: Cytotoxic effect, IC50
Experimental: as §1, §2

[14] = system: Caco2; test: MTT cytotoxicity, Caco2; assay type: cell-based, human; conditions: 48 h incubation, read-out: Cytotoxic effect, IC50
Experimental: as §1, §2

[15] = system: human cancer cell lines; test: MTT cytotoxicity, summary statements over the cancer cell line panel; assay type: cell-based; conditions: read-out: IC50 for seven (2c) and six (3c) cancer cell lines
Experimental: Cytotoxicity was evaluated against fifteen adherent human cancer cell lines using the MTT test: colorectal adenocarcinoma cells Caco2 (ATCC® HTB-37™), colorectal adenocarcinoma cells HT29 (ATCC® HTB-38™), colon colorectal carcinoma HCT116 (ATCC® CCL-247™), colon adenocarcinoma COLO205 (ATCC® CCL-222™), colorectal adenocarcinoma SW620 (ATCC® CCL-227™), colorectal adenocarcinoma grade IV LoVo (ATCC® CCL-229™), hepatocellular carcinoma Hep 3b (ATCC® HB-8064™), endometrium adenocarcinoma HEC1A (ATCC® HTB-112™), Ishikawa (99040201; Sigma–Aldrich Sigma, St. Louis, MO, USA), cervical adenocarcinoma cells HeLa (ATCC® CCL-2™), lung epithelial carcinoma A549 (ATCC® CRM-CCL-185™), breast epithelial adenocarcinoma cell positive for estrogen and progesterone receptors MCF7 (ATCC® HTB-22™) and negative for expression of estrogen receptor HCC38 (ATCC® CRL-2314™), acute promyelocytic leukemia HL-60 (ATCC® CCL-240™), skin melanoma WM115 (ATCC® CRL-1676™), and 1 suspension cancer cell line: acute lymphoblastic leukemia NALM6 (purchased from the German Collection of Microorganisms and Cell Cultures). […]
The cytotoxicity was tested by a standard MTT [3-(4,5-dimethylthiazol-2-yl)-2,5-diphenyltetrazolium bromide] […] The anticancer activity of the investigated compounds was evaluated in vitro on the basis of their ability to inhibit the proliferation of various cancer cells. […]

[16] = system: Colo205; test: MTT cytotoxicity, Colo205; assay type: cell-based, human; conditions: 48 h incubation, read-out: Cytotoxic effect, IC50
Experimental: as §1, §2

[17] = system: MCF7; test: MTT cytotoxicity, MCF7; assay type: cell-based, human; conditions: 48 h incubation, read-out: Cytotoxic effect, IC50
Experimental: as §1, §2

[18] = system: human microvascular endothelial cell line HMEC1; test: MTT cytotoxicity, normal endothelial cells HMEC1; assay type: cell-based; conditions: for IC50: HMEC1 normal endothelial cells, 48 h incubation, read-out: Cytotoxic effect, IC50; for IC50 for HMEC-1 higher than for cancer cells (selectivity): HMEC-1 vs cancer cells
Experimental: as §1, §2

[19] = system: Hela; test: MTT cytotoxicity, Hela; assay type: cell-based, human; conditions: 48 h incubation, read-out: Cytotoxic effect, IC50
Experimental: as §1, §2

[20] = system: PARP1; test: Cleaved PARP level (ELISA), WM115 cells; assay type: cell-based, human; conditions: WM115, 24 h at IC50 concentration
Experimental: Cells (1 × 10^6) were seeded in 35 mm dishes and cultured for 24 h in the appropriate medium until they reached log phase growth. […] After incubation, the medium was removed, the cells were washed with PBS solution and trypsinized. The harvested cell pellet was lysed in RIPA buffer (50 mM Tris-HCL, pH 8.0, with 150 mM sodium chloride, 1.0% Igepal CA-630 (NP-40), 0.5% sodium deoxychlorate, and 0.1% sodium dodecyl sulfate) with protease inhibitor (phenylmethylsulfonyl fluoride) (Sigma-Aldrich Sigma, St. Louis, MO, USA). The level of cleaved PARP was estimated using the PARP Cleaved [214/215] ELISA kit (Invitrogen, Waltham, MA, USA) according to the protocol described in the manufacturer’s instructions.

Row | SMILES | IC50 [1] [µM] | IC50 [2] [µM] | IC50 [3] [µM] | IC50 [4] [µM] | IC50 [5] [µM] | IC50 [6] [µM] | decrease in mitochondrial potential (JC-1) [7] [%] | IC50 [8] [µM] | IC50 [9] [µM] | IC50 [10] [µM] | IC50 [11] [µM] | Lipophilicity, RM [12] | IC50 [13] [µM] | IC50 [14] [µM] | IC50 [16] [µM] | IC50 [17] [µM] | IC50 [18] [µM] | IC50 for HMEC-1 higher than for cancer cells (selectivity) [18] | IC50 [19] [µM] | other results
1 | Cc1ccc(C(C)C)cc1.NC(=S)n1nc(-c2ccccc2)cc1O.[Cl-].[Cl][Ru+] [2c] | 26.7 ± 3.3 | > 200 | > 200 | 142 ± 7.4 | 11.7 ± 1.6 | 29.5 ± 2.1 | ~50 | 49.4 ± 1.2 | 42.6 ± 3.2 | 24.5 ± 0.9 | 86.5 ± 8 | 2.27 | 104 ± 4.4 | > 200 | 32.6 ± 3.3 | 83.4 ± 7.3 | 192 ± 6.5 | 3–5 times | 124 ± 7.2 | IC50 [15]: < 50 µM
2 | CCc1cc(CC)n(C(N)=S)n1.Cc1ccc(C(C)C)cc1.F[P-](F)(F)(F)(F)F.[Cl-].[Ru+2] [3b] | 51.7 ± 5.3 | 162 ± 7.9 | > 200 | 121 ± 3.7 | 18.5 ± 2.3 | 123 ± 3.7 | ~50 | 78.8 ± 7.4 | 99.1 ± 9.4 | 40.1 ± 2.1 | 52.9 ± 2.1 | 2.73 | 62.4 ± 2.7 | 82.4 ± 8.4 | 91.6 ± 1.6 | 132 ± 5.3 | 135 ± 6.7 | 3–5 times | 101 ± 6.7 | increase in level of PARP1 degradation compared to controls [20]: ~140%
3 | Cc1cc(C)n(C(N)=S)n1.Cc1ccc(C(C)C)cc1.F[P-](F)(F)(F)(F)F.[Cl-].[Ru+2] [3a] | 64.1 ± 5.1 | > 200 | > 200 | > 200 | 46.1 ± 5.1 | 123 ± 3.9 |  | 63.9 ± 2.7 | 127 ± 3.7 | 77.2 ± 4.4 | 79.7 ± 7.2 | 2.55 | 55.3 ± 2.6 | 107 ± 8.4 | 59.6 ± 3.4 | > 200 | > 200 | 3–5 times | 98.7 ± 7.4 | 
4 | CCc1cc(CC)n(C(N)=S)n1.Cc1ccc(C(C)C)cc1.[Cl-].[Cl][Ru+] [2b] | 54.9 ± 5.9 | > 200 | 63.7 ± 4.4 | 51.4 ± 1.9 | 40 ± 5.6 | 107 ± 5.9 |  | 107 ± 3.4 | 59.7 ± 3.2 | 36.4 ± 1.7 | 80.8 ± 3.9 | 2.59 | > 200 | > 200 | 115 ± 4.1 | 82.7 ± 3 | 125 ± 2.1 | 3–5 times | 164 ± 8.5 | 
